{
  "source": "patent US20260217763A1",
  "about": "“Novel Peptide and Use Thereof” (Zincure Corp., priority 2022, published 2026)",
  "key": {"[1]": {"assay": "In vitro plasma stability assay", "assay_type": "in vitro ADME, ICR mice", "conditions": "10 μM peptide, 37° C.; for stability in plasma over time: mouse plasma, 0 to 90 min, LC-MS", "description": "FIG. 1 is a graph showing the results of measuring quantitative changes of alloferon L-type and alloferon D-type peptides by mass spectrometry to investigate their degradation in plasma from mice, where 10 µM of each alloferon peptide was treated in isolated plasma and were incubated at 37° C. for 0, 10, 30, 60, and 90 min.\nAs the present inventors believed that the mechanism of action of alloferon peptides is through endocytosis via multi-ligand receptors rather than physiological activity and that zinc-binding capacity is an important mechanism, they investigated the blood stability of the D-type alloferon of Example 1-2 in which all amino acids except glycine have been replaced with D-type amino acids and the L-type alloferon of Example 1-1. An in vitro plasma stability assay was performed to compare the stability of the L-type peptide and the D-type peptide of alloferon in the plasma of mice. For this purpose, 500 to 600 μl of blood was obtained from ICR mice by orbital blood sampling, which was subsequently centrifuged at 2000×g for 20 min at 4° C. using a centrifuge, and the supernatant was collected to obtain plasma. After adding 10 μM of the alloferon L-type and D-type peptides to 100 μl of the plasma, the plasma was incubated at 37° C. for 0, 5, 10, 30, 60, and 90 min. Then, 500 μl of cold methanol was added to precipitate the protein, and the protein was lyophilized and subjected to liquid chromatography and protein mass spectrometry."}, "[2]": {"system": "GFP-mHttQ74 aggregates in HEK293T cell line", "assay": "Mutant huntingtin protein aggregates after overexpression, Western blot", "assay_type": "cell-based", "conditions": "peptide 30 μM with 100 nM bafilomycin A1, 18 h, HEK293T; FIG. 6", "description": "(§1) FIG. 6 is a result of Western blot analysis of the level of mutant huntingtin protein expression in protein samples obtained 18 h after treatment of HEK293T cells transfected to express mutant huntingtin protein with 100 nM bafilomycin A1 alone or in combination with 30 μM of some variant alloferon peptides according to one embodiment of the present invention, for investigating the degradation of mutant huntingtin protein aggregates by treatment with some variant alloferon peptides (DALS1, DAL-VS_V(−Q), DAL1, and DALV2) according to one embodiment of the present invention.\n(§2) The present inventors then investigated whether some of the variant peptides (DALS1, DALVS_V, DAL1, DALV2) comprising the amino acid sequences designated as SEQ ID NO: 3 through 16 could resolve SOD1 aggregates that formed after transient transfection of SOD1 protein into the 293T cell line. To this end, EGFP-SOD1 G93A DNA was transiently transfected into the HEK293T cell line using Lipofectamine 2000. After transfection, the cell lines were incubated in a cell culture machine at 37° C. and 5% CO2 for 30 h, and the culture medium was replaced with Minimum Essential Medium (MEM, Gibco, USA). Subsequently, the cells were pretreated with 100 nM bafilomycin for 30 min, which were then treated with μM variant alloferon peptide and incubated for 18 h. […] Then, it was subjected to protein quantification using BCA protein assay kit (Pierce Biotechnology, USA), and centrifuged at 17,000×g for 20 min, where the supernant was discarded and only the cell debris was taken to obtain protein. Subsequently, 5× sample buffer (300 mM Tris, pH 6.8, 10% SDS, 50% Glycerol, 0.1% BPB, 2.5% Mercaptoethanol, 100 mM DTT) was mixed with the quantified sample, denatured at 95° C. for 5 min, and prepared for analysis. […] Protein signals were detected using enhanced chemiluminescence (INTRON Biotechnology, South Korea) and a bio-imaging system (MF-Chemibis, Shimadzu Scientific Korea Corporation, South Korea). […]"}, "[3]": {"system": "EGFP-α-synuclein A53T aggregates in HEK293T cell line", "assay": "α-synuclein protein aggregates after overexpression, Western blot", "assay_type": "cell-based", "conditions": "peptide with 100 nM bafilomycin A1, 18 h, HEK293T; FIG. 5", "description": "as §1, with “FIG. 5” for “FIG. 6”, “of α-synuclein” for “of mutant huntingtin”, “express α-synuclein” for “express mutant huntingtin protein”, “30 µM” for “30 μM”\nas §2"}, "[4]": {"system": "H4 cell lines (GL-H4) expressing GFP-linked LC3", "assay": "Analysis of autophagic flow blocked by bafilomycin A-1 (LC3-GFP spots)", "assay_type": "cell-based", "conditions": "peptide 20 μM with Baf A1 100 nM, GL-H4 cells; FIGS. 2E and 2F", "description": "FIGS. 2A to 2C are series of fluorescence micrographs of LC3-GFP spots 12 h after treating H4 cell line (GL-H4) that stably overexpresses GFP-LC3 protein with various variant alloferon peptides according to one embodiment of the present invention in combination with bafilomycin at a concentration of 20 μM, showing that autophagic flux blocked by bafilomycin A-1 is restored by the variant alloferon peptides according to one embodiment of the present invention. FIGS. 2D to 2F are graphs showing quantification of the fluorescence intensity of LC3-GFP spots 12 h after treatment of the GL-H4 cell line with the variant alloferon peptides according to one embodiment of the present invention in combination with bafilomycin at a concentration of 20 μM.\nH4 cell line (GL-H4) and HEK293T cell line permanently transfected with GFP-LC3 plasmid were used in the present invention. The cell culture medium was Minimum Essential Medium (MEM, WellGene) supplemented with 10% fetal bovine serum (Hyclone, USA) and antibiotic and antifungal mixture (WellGene, Korea) and cultured in a cell culture machine at 37° C. and 5% CO2.\nTo investigate the effect of peptides comprising the amino acid sequences designated as SEQ ID NO: 3 to 16 on autophagic flow, the present inventors treated H4 cell lines (GL-H4) expressing GFP-linked LC3 with the peptides (20 μM) and/or the autophagic inhibitor Bafilomycin A-1 (Baf A1, 100 nM) to inhibit autophagy, and then the effect of the variant alloferon peptides according to one embodiment of the present invention was investigated by fluorescence microscopy analysis."}, "[5]": {"system": "EGFP-SOD1 G93A aggregates in HEK293T cell line", "assay": "SOD1 protein aggregates after SOD1 overexpression, Western blot", "assay_type": "cell-based", "conditions": "peptide with 100 nM bafilomycin, 18 h, HEK293T; FIG. 3B", "description": "as §1, with “FIG. 3A” for “FIG. 6”, “of SOD1” for “of mutant huntingtin”, “express SOD1” for “express mutant huntingtin protein”, “invention. FIG. 3B is a graph representing the results of quantifying relative expression of the SOD1 protein. In FIG. 3B, * indicates a significant difference compared to the treatment with bafilomycin alone (* p<0.05).” for “invention.”\nThe present inventors then investigated whether some of the variant peptides (DALS1, DALVS_V, DAL1, DALV2) comprising the amino acid sequences designated as SEQ ID NO: 3 through 16 could resolve SOD1 aggregates that formed after transient transfection of SOD1 protein into the 293T cell line. To this end, EGFP-SOD1 G93A DNA was transiently transfected into the HEK293T cell line using Lipofectamine 2000. After transfection, the cell lines were incubated in a cell culture machine at 37° C. and 5% CO2 for 30 h, and the culture medium was replaced with Minimum Essential Medium (MEM, Gibco, USA). Subsequently, the cells were pretreated with 100 nM bafilomycin for 30 min, which were then treated with μM variant alloferon peptide and incubated for 18 h. After that, proteinase inhibitors and phosphatase inhibitors (2 μg/ml aprotinin, 2 μg/ml leupeptin, 1 μg/ml pepstatin A, 1 mM phenyl-methylsulfonyl fluoride (PMSF), 1 mM Na3 VO4, 5 mM NaF and 10 mM Na4P2O7) were put into a 6-well culture dish at 200 μl per well to lyse the cells. The obtained cell lysate was first left at 30 min for 4° C. Then, it was subjected to protein quantification using BCA protein assay kit (Pierce Biotechnology, USA), and centrifuged at 17,000×g for 20 min, where the supernant was discarded and only the cell debris was taken to obtain protein. Subsequently, 5× sample buffer (300 mM Tris, pH 6.8, 10% SDS, 50% Glycerol, 0.1% BPB, 2.5% Mercaptoethanol, 100 mM DTT) was mixed with the quantified sample, denatured at 95° C. for 5 min, and prepared for analysis. Then, electrophoresis was performed using 8% to 15% SDS-polyacrylamide gel, and the proteins separated by their sizes were transferred to polyvinylidene difluoride (PVDF) membranes (Millipore, USA). The protein-transferred membranes were then blocked with 3% skim milk powder in TBST for 1 h. […] Protein signals were detected using enhanced chemiluminescence (INTRON Biotechnology, South Korea) and a bio-imaging system (MF-Chemibis, Shimadzu Scientific Korea Corporation, South Korea)."}, "[6]": {"system": "P-Tau S214, P-Tau T205, unphosphorylated tau, p62, LC3, β-amyloid (APP)", "assay": "Western blot of aggregate-forming proteins in cortex and hippocampus", "assay_type": "in vivo", "conditions": "5×FAD mice", "from_the_text": "The present inventors conducted a western blot analysis to investigate the expression of pathogenic aggregate-forming proteins in brain tissue, such as tau protein, p62, and LC3, other than β-amyloid from the results of Experimental examples 8-2 and 8-3 above.\nSpecifically, cortical and hippocampal tissues were obtained from experimental animals sacrificed after the behavioral experiments, and the tissues were lysed and subjected to Western blot analysis using antibodies that specifically bind to phosphorylated tau S214 (P-Tau S214), phosphorylated tau T205 (P-Tau T205), unphosphorylated tau, p62, LC3, and β-amyloid (APP), respectively."}},
  "note": "Square brackets hold non-standard residues; d marks the D form. Ends that are not written are not given here. Peptide text beside a SMILES is read from it.",
  "data": [
    {"compound": "CC(C)[C@@H](NC(=O)CNC(=O)[C@H](N)Cc1c[nH]cn1)C(=O)N[C@H](CO)C(=O)NCC(=O)N[C@H](Cc1c[nH]cn1)C(=O)NCC(=O)N[C@H](CCC(N)=O)C(=O)N[C@H](Cc1c[nH]cn1)C(=O)NCC(=O)N[C@@H](C(=O)N[C@H](Cc1c[nH]cn1)C(=O)NCC(=O)O)C(C)C", "note": "[DAL1] (H-[dH]G[dV][dS]G[dH]G[dQ][dH]G[dV][dH]G-OH; N-terminus and C-terminus assumed)", "values": [
      {"measurement": "stability in plasma over time", "setting": "[1]", "result": "remained stable over time without degradation"}
    ]},
    {"compound": "DALH1: variant alloferon peptide, SEQ ID NO: 8, HGvsGhGqhGvhG (capital L-type, lowercase D-type) (HG[dV][dS]G[dH]G[dQ][dH]G[dV][dH]G)", "values": [
      {"measurement": "mutant huntingtin protein aggregate dissociating ability compared to DAL1", "setting": "[2]", "result": "better protein aggregate dissociating ability"}
    ]},
    {"compound": "DALQ1: variant alloferon peptide, SEQ ID NO: 10, hGvsGhGQhGvhG (capital L-type, lowercase D-type) ([dH]G[dV][dS]G[dH]GQ[dH]G[dV][dH]G)", "values": [
      {"measurement": "α-synuclein protein aggregate dissociating ability compared to DAL-1", "setting": "[3]", "result": "better protein aggregate dissociating ability"}
    ]},
    {"compound": "DALS1: variant alloferon peptide, SEQ ID NO: 5, hGvSGhGqhGvhG (capital L-type, lowercase D-type) ([dH]G[dV]SG[dH]G[dQ][dH]G[dV][dH]G)", "values": [
      {"measurement": "autophagic scavenging activity compared to D-type alloferon peptide (DAL1)", "setting": "[4]", "result": "superior autophagic scavenging activity"},
      {"measurement": "SOD1 protein aggregate dissociating ability compared to DAL1", "setting": "[5]", "result": "better protein aggregate dissociating ability"}
    ]},
    {"compound": "DALV1: variant alloferon peptide, SEQ ID NO: 7, hGVsGhGqhGvhG (capital L-type, lowercase D-type) ([dH]GV[dS]G[dH]G[dQ][dH]G[dV][dH]G)", "values": [
      {"measurement": "autophagic scavenging activity compared to D-type alloferon peptide (DAL1)", "setting": "[4]", "result": "superior autophagic scavenging activity"}
    ]},
    {"compound": "DALV2: variant alloferon peptide, SEQ ID NO: 4, hGvsGhGqhGVhG (capital L-type, lowercase D-type) ([dH]G[dV][dS]G[dH]G[dQ][dH]GV[dH]G)", "values": [
      {"measurement": "autophagic scavenging activity compared to D-type alloferon peptide (DAL1)", "setting": "[4]", "result": "superior autophagic scavenging activity"},
      {"measurement": "SOD1 protein aggregate dissociating ability compared to DAL1", "setting": "[5]", "result": "better protein aggregate dissociating ability"},
      {"measurement": "α-synuclein protein aggregate dissociating ability compared to DAL-1", "setting": "[3]", "result": "better protein aggregate dissociating ability"},
      {"measurement": "mutant huntingtin protein aggregate dissociating ability compared to DAL1", "setting": "[2]", "result": "better protein aggregate dissociating ability"},
      {"measurement": "amount of β-amyloid", "setting": "[6]; Western blot of hippocampal sections", "result": "significantly reduced"},
      {"measurement": "expression of aggregate-forming proteins", "setting": "[6]; cortex and hippocampus, 20 mg/kg IP, 25 weeks", "result": "significantly lower expression"},
      {"measurement": "protein aggregate dissociating ability compared to DAL1", "setting": "[6]; cortical Western blot analysis", "result": "better protein aggregate dissociating ability"}
    ]},
    {"compound": "DALVS: variant alloferon peptide, SEQ ID NO: 3, hGVSGhGqhGvhG (capital L-type, lowercase D-type) ([dH]GVSG[dH]G[dQ][dH]G[dV][dH]G)", "values": [
      {"measurement": "autophagic scavenging activity compared to D-type alloferon peptide (DAL1)", "setting": "[4]", "result": "superior autophagic scavenging activity"}
    ]},
    {"compound": "DALVSQV", "values": [
      {"measurement": "autophagic scavenging activity compared to D-type alloferon peptide (DAL1)", "setting": "[4]", "result": "superior autophagic scavenging activity"}
    ]},
    {"compound": "DALVS_V: variant alloferon peptide with glutamine removed, SEQ ID NO: 14, hGVSGhGhGVhG (capital L-type, lowercase D-type) ([dH]GVSG[dH]G[dH]GV[dH]G)", "values": [
      {"measurement": "autophagic scavenging activity compared to D-type alloferon peptide (DAL1)", "setting": "[4]", "result": "superior autophagic scavenging activity"},
      {"measurement": "SOD1 protein aggregate dissociating ability compared to DAL1", "setting": "[5]", "result": "better protein aggregate dissociating ability"}
    ]},
    {"compound": "HGVSGHGQHGVHG [LAL]", "values": [
      {"measurement": "half-life", "setting": "[1]; FIG. 1, isolated mouse plasma, read-out: half-life (T1/2)", "result": 51.8, "unit": "min"},
      {"measurement": "stability in plasma over time", "setting": "[1]", "result": "degraded early in plasma"}
    ]}
  ]
}
